Experiments:
Assay type in all cases: in vivo
Design in all cases: key: 5=81-100%; 4=61-80%; 3=41-60%; 2=21-40%; 1=1-20%; 0=no damage to the plant; -=not tested
[1] = system: Amaranthus palmeri (AMAPA); assay: Pre-emergence test, herbicidal damage; details: 1000 g/ha unless otherwise stated, evaluated after 13 days, five-point scale
[2] = system: Amaranthus retoflexus (AMARE); assay: Pre-emergence test, herbicidal damage; details: 1000 g/ha unless otherwise stated, evaluated after 13 days, five-point scale
[3] = system: Zea mays (ZEAMX); assay: Pre-emergence test, herbicidal damage; details: 1000 g/ha unless otherwise stated, evaluated after 13 days, five-point scale
[4] = system: Echinochloa crus-galli (ECHCG); assay: Pre-emergence test, herbicidal damage; details: 1000 g/ha unless otherwise stated, evaluated after 13 days, five-point scale
[5] = system: Setaria faberi (SETFA); assay: Pre-emergence test, herbicidal damage; details: 1000 g/ha unless otherwise stated, evaluated after 13 days, five-point scale
[6] = system: Setaria faberi (SETFA); assay: Post-emergence test, herbicidal damage; details: sprayed after 8 days cultivation, 1000 g/ha unless otherwise stated, evaluated after 13 days, five-point scale
Summary of the method: (§1)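 Spray at 1000 g/ha unless otherwise stated; vehicle acetone/water (50:50) with 0.5% Tween 20; applied to pots in a 24/16 °C glasshouse. Injury was assessed 13 days after application and banded into a five-point score, 5 denoting 81–100% damage.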

[7] = system: Amaranthus retoflexus (AMARE); assay: Post-emergence test, herbicidal damage; details: sprayed after 8 days cultivation, 1000 g/ha unless otherwise stated, evaluated after 13 days, five-point scale
Summary of the method: as §1

[8] = system: Zea mays (ZEAMX); assay: Post-emergence test, herbicidal damage; details: sprayed after 8 days cultivation, 1000 g/ha unless otherwise stated, evaluated after 13 days, five-point scale
Summary of the method: as §1

[9] = system: Ipomoea hederacea (IPOHE); assay: Post-emergence test, herbicidal damage; details: sprayed after 8 days cultivation, 1000 g/ha unless otherwise stated, evaluated after 13 days, five-point scale
Summary of the method: as §1

[10] = system: Echinochloa crus-galli (ECHCG); assay: Post-emergence test, herbicidal damage; details: sprayed after 8 days cultivation, 1000 g/ha unless otherwise stated, evaluated after 13 days, five-point scale
Summary of the method: as §1

[11] = system: Amaranthus palmeri (AMAPA); assay: Post-emergence test, herbicidal damage; details: sprayed after 8 days cultivation, 1000 g/ha unless otherwise stated, evaluated after 13 days, five-point scale
Summary of the method: as §1

[12] = system: Ipomoea hederacea (IPOHE); assay: Pre-emergence test, herbicidal damage; details: 1000 g/ha unless otherwise stated, evaluated after 13 days, five-point scale

Cc1cc(-c2ccc(Cl)c(Cl)c2)c(C(=O)O)c(=O)n1-c1ccc(F)cc1 [Compound 16, 4-(3,4-dichlorophenyl)-1-(4-fluorophenyl)-6-methyl-2-oxo-pyridine-3-carboxylic acid]
percentage damage caused to the plant, AMAPA [1]: 0
percentage damage caused to the plant, AMARE [2]: 0
percentage damage caused to the plant, ZEAMX [3]: 0
percentage damage caused to the plant, ECHCG [4]: 0
percentage damage caused to the plant, SEFTA [5]: 0
percentage damage caused to the plant, SEFTA [6]: 2 (2=21-40%)
percentage damage caused to the plant, AMARE [7]: 1 (1=1-20%)
percentage damage caused to the plant, ZEAMX [8]: 1 (1=1-20%)
percentage damage caused to the plant, IPOHE [9]: 1 (1=1-20%)
percentage damage caused to the plant, ECHCG [10]: 1 (1=1-20%)
percentage damage caused to the plant, AMAPA [11]: 2 (2=21-40%)
percentage damage caused to the plant, IPOHE [12]: 0

Cc1[nH]c(=O)c(C(=O)O)c(-c2ccc(Cl)c(Cl)c2)c1C#N [Compound 11, 5-cyano-4-(3,4-dichlorophenyl)-6-methyl-2-oxo-1H-pyridine-3-carboxylic acid]
percentage damage caused to the plant, AMAPA [1]: 0
percentage damage caused to the plant, AMARE [2]: 0
percentage damage caused to the plant, ZEAMX [3]: 0
percentage damage caused to the plant, ECHCG [4]: 0
percentage damage caused to the plant, SEFTA [5]: 0
percentage damage caused to the plant, SEFTA [6]: 0
percentage damage caused to the plant, AMARE [7]: 0
percentage damage caused to the plant, ZEAMX [8]: 0
percentage damage caused to the plant, IPOHE [9]: 0
percentage damage caused to the plant, ECHCG [10]: 0
percentage damage caused to the plant, AMAPA [11]: 0
percentage damage caused to the plant, IPOHE [12]: 0

Source: US20250289787A1, “HERBICIDAL 2-OXO-NICOTINIC ACID DERIVATIVES” (SYNGENTA CROP PROTECTION AG, priority 2022, published 2025)
